Laboratory results reported in patent US20230406883A1, “COMPOUNDS AND THEIR USE IN TREATMENT OF TACHYKININ RECEPTOR MEDIATED DISORDERS” (Embark Biotech ApS, priority 2020, published 2023).
Numbered stars: 1 amine (or outer) side, 2 acyl side, 3 side chain; on linkers, the order of the positions; unused ones are H or OH. Square brackets hold non-standard residues; d marks the D form. Peptide text beside a SMILES is read from it. * marks the point of attachment. C18 diacid = O=C(O)CCCCCCCCCCCCCCCCC(=O)*; γGlu = O=C(O)[C@H](CCC(=O)[*:2])N[*:1]; NMeL = CN[C@@H](CC(C)C)C(=O)O; hSer = N[C@@H](CCO)C(=O)O; Nle = CCCC[C@H](N)C(=O)O; AEEA = NCCOCCOCC(=O)O

Columns and labels:
[1] = Energy expenditure screening by indirect calorimetry in diet-induced obese mice; assay type: in vivo; conditions: DIO mice, 0.5 mg/kg s.c., increase over vehicle
Experimental: Indirect calorimetry was used to evaluate the ability of individual peptide analogues to dose-dependently increase energy expenditure (EE) we used metabolic cages and indirect calorimetry measured by the Promethion system. To this end, oxygen consumption was used as a surrogate measure for EE. Substrate preference (fat or carbohydrate) was evaluated using the respiratory exchange ratio (RER). In parallel, behavioral information such as walking distance and water and food intake were recorded.
Prior to experimentation, DIO mice were transferred to habituation cages for at least 10 days (5 days outside and at least 5 days in the Sable Systems gas analyzer module) to acclimatize. For all in vivo compound tests for EE evaluation, mice received subcutaneous injections between 2 and 4 pm.
Energy expenditure screening: After habituation, mice were subcutaneously injected with 0.5 mg/kg peptide analogue in a volume of 2 ml/kg. Mice were injected q.a.d. (quaque altera die) and received a total of two injections. EE was evaluated and increase over vehicle was calculated as percent of mean oxygen consumption over a 30-hour period after injection. Prior to injection peptide analogues were dissolved to 0.25 mg/ml in in vivo buffer.

hNK2R = target: T1, hNK2R (Homo sapiens, UniProt P21452); experiment: Indirect human serum albumin binding by IP3 assay, 0.2% ovalbumin vs 1% HSA; assay type: cell-based; conditions: for hNK2R, Albumin binding Efficacy (%)-ovalbumin: 0.2% ovalbumin; for hNK2R, Albumin binding Efficacy (%)-1% human serum albumin / EC50: 1% HSA; for EC50: read-out: hNK2R, Albumin binding EC50 (nM)-1% human serum albumin
T1 construct: host or cells: COS-7
T1 sequence (P21452 1-398): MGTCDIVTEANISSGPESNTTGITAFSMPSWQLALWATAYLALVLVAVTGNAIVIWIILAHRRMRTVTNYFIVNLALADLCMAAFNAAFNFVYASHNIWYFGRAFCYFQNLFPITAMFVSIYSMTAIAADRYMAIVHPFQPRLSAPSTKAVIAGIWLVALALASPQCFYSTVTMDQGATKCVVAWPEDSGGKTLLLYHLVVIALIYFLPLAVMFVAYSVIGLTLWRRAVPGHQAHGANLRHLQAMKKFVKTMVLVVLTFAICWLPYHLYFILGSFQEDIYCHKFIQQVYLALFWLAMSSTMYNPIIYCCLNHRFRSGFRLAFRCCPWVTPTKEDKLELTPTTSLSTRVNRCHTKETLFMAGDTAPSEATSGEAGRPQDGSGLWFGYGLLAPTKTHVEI
Experimental: Agonist-induced G-protein coupled receptor (GPCR) activation was measured by an Inositol-1,4,5-Trisphosphate [^3H] Radioreceptor Assay (IPs Assay). Assays were carried out using COS-7 cells transiently transfected by calcium phosphate transfection with a vector pcDNA3.1(+) encoding one of the indicated receptors (Genscript). Briefly, DNA mixed with CaCl2 (2 M) and TE-buffer (10 mM Tris-HCl, 1 mM EDTA, pH 7.5) was dropwise added to 2×HBS (50 mM HEPES, 280 mM NaCl, 1.5 mM NaH2PO4, pH 7.2) and incubated for 45 min at room temperature (22±2° C.). The mixture and a final concentration of 100 μM Chloroquine were added to the cells and left to incubate for 5 hours at 37° C. under standard cell culture conditions (10% CO2) before changing medium to fresh medium containing 5 μl/mL Myo-[2-^3H(N)]-inositol (labeling medium).
The indirect HSA binding IP3 assay takes advantage of the tachykinin receptors' ability to induce production of the inositol trisphosphate (IP3) second messenger upon agonist (ligand) binding on receptor expressing cells following an initial ^3H-inositol labeling period. The assay relies on the assumption that high peptide HSA binding will result in low receptor-mediated production of the second messenger IP3. Thus, the assay is an indirect assessment HSA binding.
Assay solutions used: Wash buffer (HBSS), Assay buffer 0.2% OvAlb (HBSS+10 mM LiCl and 0,2% w/v ovalbumin) or Assay buffer 1% HSA (HBSS+10 mM LiCl and 1% w/v HSA), Lysis buffer (10 mM formic acid), and SPA YSI beads (12.5 mg/ml in H2O). The assay was performed the day after transfection. Briefly, labelling medium was aspirated, and plates were washed ×1 in wash buffer before adding 100 μl assay buffer 0.2% OvAlb or assay buffer 1% HSA, pre-incubated for 30 min followed by 120 min incubation with agonist, both at 37° C. After incubation, plates were immediately placed on ice and the incubation medium was aspirated and 40 μl of 10 mM formic acid per well was added. Plates were incubated for at least 30 min on ice. 60 μl (1 mg/well) SPA YSI beads/well was pipetted into a solid white 96 wells plate and 35 μl of the lysis solution was transferred to the plate before covering plates with seal cover and shaking for 10 min. (max speed). Centrifuge plates and leave for 8 hours at room temperature before counting the plates in a MicroBeta plate counter (Perkin Elmer).

[2] = Loperamide-induced dysfunctional voiding test; assay type: in vivo; conditions: lean wild-type mice, Loperamide 5 mg/kg, compound 130, 260, 325 nmol/kg s.c.
Experimental: Dysfunctional voiding test: To investigate the effect on dysfunctional voiding, constipation was induced in lean wild-type, male and female, mice using Loperamide (5 mg/kg). 30 minutes after gavage, mice were subcutaneously dosed with either vehicle, 130, 260 and for males also 325 nmol/kg of EB344. 6 hours post Loperamide gavage, mice were removed from the cage and number of feces pellets were counted.

[3] = Intraperitoneal glucose tolerance test (ipGTT) in DIO mice; assay type: in vivo; conditions: 325 nmol/kg s.c. once, test 24 hours after treatment
Experimental: Glucose tolerance test: The effect on glucose tolerance was determined using intraperitoneal glucose tolerance test (ipGTT) 24 hours after single subcutaneous injection of NK2R-selective analogue in DIO mice. At day of experimentation, mice were fasted four hours prior to receiving 1 g/kg glucose diluted in saline solution ([…]) by intraperitoneal injection. Change in glucose was monitored using glucometer.

[4] = Intraperitoneal insulin tolerance test (ipITT) in DIO mice; assay type: in vivo; conditions: 325 nmol/kg s.c. once, test 24 hours after treatment
Experimental: Insulin tolerance test: The effect on insulin tolerance was determined using intraperitoneal insulin tolerance test (ipITT) 24 hours after single subcutaneous injection of NK2R-selective analogue in DIO mice. At day of experimentation, mice were fasted two hours prior to receiving 1.5 U/kg insulin diluted in saline solution (0.2 mL/kg) by intraperitoneal injection. Change in glucose was monitored using glucometer.

SMILES | Energy expenditure (percent of vehicle; based on 30 h average vO2) [1] | hNK2R, Albumin binding Efficacy (%)-ovalbumin (hNK2R) [%] | hNK2R, Albumin binding Efficacy (%)-1% human serum albumin (hNK2R) | EC50 (hNK2R) [nM] | Loperamide-induced dysfunctional voiding (number of feces pellets during six hours) [2] | Glucose tolerance (ipGTT) [3] | Insulin tolerance (ipITT) [4]
CCCC[C@H](NC(=O)[C@H](CC(C)C)N(C)C(=O)CNC(=O)[C@@H](NC(=O)[C@H](Cc1ccc(O)cc1)NC(=O)[C@H](CCCCN)NC(=O)[C@H](CC(=O)O)NC(=O)COCCOCCNC(=O)COCCOCCNC(=O)CC[C@H](NC(=O)CCCCCCCCCCCCCCCCC(=O)O)C(=O)O)C(C)C)C(N)=O [compound 305, *Asp;Lys;Tyr;Val;Gly;NmLeu;Nle;NH2] ({C18 diacid-γGlu-AEEA-AEEA}-DKYVG[NMeL][Nle]-NH2) | 9% of vehicle | 83 | 45-51% | 260 | – | – | –
COCC[C@H](NC(=O)[C@H](CC(C)C)N(C)C(=O)CNC(=O)[C@@H](NC(=O)[C@H](Cc1ccc(O)cc1)NC(=O)[C@H](CCCCN)NC(=O)[C@H](CC(=O)O)NC(=O)COCCOCCNC(=O)COCCOCCNC(=O)CC[C@H](NC(=O)CCCCCCCCCCCCCCCCC(=O)O)C(=O)O)C(C)C)C(N)=O [compound 344, *Asp;Lys;Tyr;Val;Gly;NmLeu;Metox;NH2] ({C18 diacid-γGlu-AEEA-AEEA}-DKYVG[NMeL][hSer](Me)-NH2) | – | 95 | 60% | 260 | improved Loperamide-induced dysfunctional voiding in a dose-dependent manner | improved both glucose and insulin tolerance | improved both glucose and insulin tolerance
